Measurements published in DBAASP.
Converted amounts (≈) assume the structure as drawn.

Assays:
Experiment in all cases: ≥ marks a high value that may be exact or a test limit, other limits are often not marked, values filed in µg/mL are converted to µM
[1] = tested on: Bacillus subtilis IFO 3143
[2] = tested on: Staphylococcus aureus IFO 12732
[3] = tested on: Pseudomonas aeruginosa KCTC 1637
[4] = tested on: Bacillus subtilis KCTC 3068
[5] = tested on: Salmonella typhimurium KCTC 1926
[6] = tested on: Pseudomonas aeruginosa IFO 12582
[7] = tested on: Staphylococcus aureus KCTC 1621
[8] = tested on: Escherichia coli KCTC 1682
[9] = tested on: Escherichia coli IFO 12734
[10] = tested on: Staphylococcus epidermidis KCTC 1917
[11] = tested on: Proteus mirabilis ATCC 25933
[12] = tested on: Salmonella enterica subsp. enterica serovar Typhimurium ATCC 14028
[13] = tested on: Klebsiella pneumoniae ATCC 13885
[14] = tested on: Bacillus subtilis ATCC 6633
[15] = tested on: Pseudomonas aeruginosa ATCC 15442
[16] = tested on: Streptococcus pyogenes ATCC 19615
[17] = tested on: Escherichia coli ATCC 8739
[18] = tested on: Staphylococcus aureus ATCC 29213
[19] = tested on: Enterococcus faecalis ATCC 12953
[20] = tested on: Escherichia coli DSM 10233
[21] = tested on: Klebsiella pneumoniae DSM 681
[22] = tested on: Micrococcus luteus ATCC 10240
Escherichia coli BL21AI = tested on: Escherichia coli BL21AI
Enterococcus faecium = tested on: Enterococcus faecium
[23] = tested on: Pseudomonas aeruginosa ATCC 27853
[24] = tested on: Malassezia furfur KCTC 7744
[25] = tested on: Aspergillus flavus KCTC 1375
[26] = tested on: Enterococcus faecium ATCC 19434
[27] = tested on: Staphylococcus aureus ATCC 25923
Pseudomonas aeruginosa = tested on: Pseudomonas aeruginosa
[28] = tested on: Candida albicans ATCC 90028
[29] = tested on: Escherichia coli O157:H7 ATCC 43895
Escherichia coli = tested on: Escherichia coli
Staphylococcus aureus = tested on: Staphylococcus aureus
[30] = tested on: Bacillus subtilis KCTC 1918
[31] = tested on: Proteus vulgaris KCTC 2433
[32] = tested on: Saccharomyces cerevisiae KCTC 7296
[33] = tested on: Trichosporon beigelii KCTC 7707
[34] = tested on: Candida albicans TIMM 1768
Escherichia coli O157 = tested on: Escherichia coli O157
Pseudomonas aeruginosa 2 = tested on: Pseudomonas aeruginosa 2
Staphylococcus aureus 1 = tested on: Staphylococcus aureus 1
Staphylococcus aureus 4 = tested on: Staphylococcus aureus 4
Staphylococcus aureus 5 = tested on: Staphylococcus aureus 5
Pseudomonas aeruginosa 1 = tested on: Pseudomonas aeruginosa 1
Pseudomonas aeruginosa 5 = tested on: Pseudomonas aeruginosa 5

CC(C)C[C@H](NC(=O)[C@H](Cc1ccc(O)cc1)NC(=O)[C@H](Cc1cnc[nH]1)NC(=O)[C@@H](NC(=O)[C@H](CC(C)C)NC(=O)[C@H](C)NC(=O)[C@H](C)NC(=O)[C@H](CCCCN)NC(=O)[C@H](C)NC(=O)[C@@H](NC(=O)[C@H](Cc1cnc[nH]1)NC(=O)[C@H](CCCCN)NC(=O)[C@H](C)NC(=O)[C@@H](NC(=O)[C@H](Cc1cnc[nH]1)NC(=O)[C@H](C)NC(=O)[C@H](C)NC(=O)[C@H](CCCCN)NC(=O)[C@H](CCCCN)NC(=O)[C@H](Cc1ccccc1)NC(=O)[C@H](Cc1ccccc1)NC(=O)[C@H](CO)NC(=O)CNC(=O)[C@H](Cc1c[nH]c2ccccc12)NC(=O)CN)C(C)C)C(C)C)[C@@H](C)O)C(=O)O [GWGSFFKKAAHVAKHVAKAALTHYL]
MIC [1]: 0.365 µM (≈ 1 µg/mL)
MIC [2]: 1.46 µM (≈ 4 µg/mL)
MIC [3]: 1 µM (≈ 2.74 µg/mL)
MIC [4]: 4 µM (≈ 11 µg/mL)
MIC [5]: 1 µM (≈ 2.74 µg/mL)
MIC [6]: 1.46 µM (≈ 4 µg/mL)
MIC [7]: 0.5 µM (≈ 1.37 µg/mL)
MIC [8]: 1 µM (≈ 2.74 µg/mL)
MIC [9]: 0.73 µM (≈ 2 µg/mL)
MIC [10]: 0.5 µM (≈ 1.37 µg/mL)

CC[C@H](C)[C@H](N)C(=O)N[C@@H](CCCCN)C(=O)N[C@@H](Cc1ccccc1)C(=O)N[C@@H](CCC(=O)O)C(=O)N1CCC[C@H]1C(=O)N1CCC[C@H]1C(=O)N[C@@H](CC(C)C)C(=O)N1CCC[C@H]1C(=O)N1CCC[C@H]1C(=O)N[C@@H](CCCCN)C(=O)N[C@@H](CCCCN)C(=O)N[C@@H](C)C(=O)N[C@@H](Cc1cnc[nH]1)C(N)=O [IKFEPPLPPKKAH]
MIC [11]: ≥ 42.6 µM
MIC [12]: 42.6 µM (≈ 64 µg/mL)
MIC [13]: 21.3 µM (≈ 32 µg/mL)
MIC [14]: ≥ 42.6 µM
MIC [15]: 21.3 µM (≈ 32 µg/mL)
MIC [16]: ≥ 42.6 µM
MIC [17]: 21.3 µM (≈ 32 µg/mL)
MIC [18]: 42.6 µM (≈ 64 µg/mL)
MIC [19]: ≥ 42.6 µM

CC[C@H](C)[C@H](NC(=O)[C@@H]1CCCN1C(=O)[C@H](CCCN=C(N)N)NC(=O)[C@@H]1CCCN1C(=O)[C@H](Cc1cnc[nH]1)NC(=O)[C@H](CO)NC(=O)[C@@H](NC(=O)[C@@H]1CCCN1C(=O)[C@H](CCCN=C(N)N)NC(=O)[C@@H]1CCCN1C(=O)[C@@H](NC(=O)[C@H](Cc1ccc(O)cc1)NC(=O)[C@@H]1CCCN1C(=O)[C@H](CCCN=C(N)N)NC(=O)[C@@H]1CCCN1C(=O)[C@H](CCCCN)NC(=O)CN)[C@@H](C)O)[C@@H](C)O)C(=O)N[C@@H](CCCN=C(N)N)C(=O)N[C@H](C(=O)O)C(C)C [GKPRPYTPRPTSHPRPIRV]
MIC [20]: 0.904 µM (≈ 2 µg/mL)
MIC [21]: 3.62 µM (≈ 8 µg/mL)
MIC [22]: 0.904 µM (≈ 2 µg/mL)
MIC (Escherichia coli BL21AI): 3.62 µM (≈ 8 µg/mL)

CC(C)C[C@H](NC(=O)[C@H](Cc1ccc(O)cc1)NC(=O)[C@H](Cc1cnc[nH]1)NC(=O)[C@@H](NC(=O)[C@H](CC(C)C)NC(=O)[C@H](C)NC(=O)[C@H](C)NC(=O)[C@H](CCCCN)NC(=O)CNC(=O)[C@@H](NC(=O)[C@H](Cc1cnc[nH]1)NC(=O)[C@H](CCCCN)NC(=O)CNC(=O)[C@@H](NC(=O)[C@H](Cc1cnc[nH]1)NC(=O)[C@H](C)NC(=O)[C@H](C)NC(=O)[C@H](CCCCN)NC(=O)[C@H](CCCCN)NC(=O)[C@H](Cc1ccccc1)NC(=O)[C@H](Cc1ccccc1)NC(=O)[C@@H](N)CO)C(C)C)C(C)C)[C@@H](C)O)C(N)=O [SFFKKAAHVGKHVGKAALTHYL]
MIC (Enterococcus faecium): 28.3 µM (≈ 68.2 µg/mL)
MIC [23]: 14.1 µM (≈ 34.1 µg/mL)
MIC [24]: 20 µM (≈ 48.2 µg/mL)
MIC [25]: 20 µM (≈ 48.2 µg/mL)
MIC [26]: 20 µM (≈ 48.2 µg/mL)
MIC [27]: 20 µM (≈ 48.2 µg/mL)
MIC (Pseudomonas aeruginosa): 28.3 µM (≈ 68.2 µg/mL)
MIC [28]: 14.1 µM (≈ 34.1 µg/mL)
MIC [29]: 20 µM (≈ 48.2 µg/mL)
MIC (Escherichia coli): 28.3 µM (≈ 68.2 µg/mL)
MIC (Staphylococcus aureus): 14.1 µM (≈ 34.1 µg/mL)

CC[C@H](C)[C@H](NC(=O)CNC(=O)[C@H](CC(C)C)NC(=O)[C@H](CCCN=C(N)N)NC(=O)[C@H](CCCCN)NC(=O)[C@H](Cc1ccccc1)NC(=O)[C@@H](NC(=O)[C@H](CCCCN)NC(=O)[C@H](CCCCN)NC(=O)[C@H](C)N)C(C)C)C(=O)NCC(=O)N[C@@H](C)C(=O)N[C@H](C(=O)N[C@@H](CC(C)C)C(=O)N[C@@H](CCCCN)C(=O)N[C@H](C(=O)N[C@@H](CC(C)C)C(=O)N[C@@H](CCCCN)C(=O)N[C@@H](CCCCN)C(=O)NCC(=O)O)C(C)C)C(C)C [AKKVFKRLGIGAVLKVLKKG]
MIC [30]: 0.78 µM (≈ 1.68 µg/mL)
MIC [31]: 0.39 µM (≈ 0.84 µg/mL)
MIC [32]: 6.25 µM (≈ 13.5 µg/mL)
MIC [33]: 4.42 µM (≈ 9.52 µg/mL)
MIC [5]: 0.19 µM (≈ 0.409 µg/mL)
MIC [7]: 1.56 µM (≈ 3.36 µg/mL)
MIC [34]: 6.25 µM (≈ 13.5 µg/mL)

CC[C@H](C)[C@H](NC(=O)[C@H](CC(C)C)NC(=O)[C@H](CCCN=C(N)N)NC(=O)[C@@H](NC(=O)[C@H](C)NC(=O)[C@H](CCCCN)NC(=O)[C@H](CO)NC(=O)[C@H](CC(C)C)NC(=O)[C@@H](N)CCC(=O)O)C(C)C)C(=O)N[C@@H](CCCCN)C(=O)O [ELSKAVRLIK]
MIC (Escherichia coli O157): 20 µM (≈ 23.1 µg/mL)
MIC (Pseudomonas aeruginosa 2): 10 µM (≈ 11.6 µg/mL)
MIC (Enterococcus faecium): 10 µM (≈ 11.6 µg/mL)
MIC (Staphylococcus aureus 1): 10 µM (≈ 11.6 µg/mL)
MIC (Staphylococcus aureus 4): 14.1 µM (≈ 16.4 µg/mL)
MIC (Staphylococcus aureus 5): ≥ 40 µM
MIC (Pseudomonas aeruginosa 1): 20 µM (≈ 23.1 µg/mL)
MIC (Pseudomonas aeruginosa 5): 14.1 µM (≈ 16.4 µg/mL)
MIC (Staphylococcus aureus): 20 µM (≈ 23.1 µg/mL)
